# Assay results as given in patent publication US4939133A, “N-substituted-2-hydroxy-α-oxo-benzeneacetamides and pharmaceutical compositions having activity as modulators of the arachidonic acid cascade” (Warner-Lambert Company, priority 1985, dated 1990).
# pIC50: −log10 of the molar value.
# Biological target: T1, human leukocyte 5-lipoxygenase (Homo sapiens, UniProt P09917)
# T1 construct: endogenous in cells; host or cells: leukocytes from fresh blood of normal adult men
# T1 sequence (P09917 1-674): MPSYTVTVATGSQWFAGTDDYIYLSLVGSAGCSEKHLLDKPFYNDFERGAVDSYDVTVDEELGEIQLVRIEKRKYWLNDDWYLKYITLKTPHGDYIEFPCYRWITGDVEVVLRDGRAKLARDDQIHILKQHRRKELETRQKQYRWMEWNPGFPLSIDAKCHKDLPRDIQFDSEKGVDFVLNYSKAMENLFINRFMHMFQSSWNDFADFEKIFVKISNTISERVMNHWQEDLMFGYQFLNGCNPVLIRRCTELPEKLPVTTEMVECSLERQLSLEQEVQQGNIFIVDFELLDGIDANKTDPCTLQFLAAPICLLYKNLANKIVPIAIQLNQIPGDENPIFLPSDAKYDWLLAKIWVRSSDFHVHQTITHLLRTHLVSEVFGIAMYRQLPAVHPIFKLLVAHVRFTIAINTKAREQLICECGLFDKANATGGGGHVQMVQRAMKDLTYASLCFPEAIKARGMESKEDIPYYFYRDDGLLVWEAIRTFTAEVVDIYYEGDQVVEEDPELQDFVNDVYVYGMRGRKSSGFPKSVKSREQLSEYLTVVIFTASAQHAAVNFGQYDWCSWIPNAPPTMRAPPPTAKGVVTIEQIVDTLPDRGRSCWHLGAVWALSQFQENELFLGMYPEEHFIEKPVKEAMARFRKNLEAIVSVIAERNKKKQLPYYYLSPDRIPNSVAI
# Assay: 5-Lipoxygenase inhibition in human leukocytes, 5-HETE formation (5LOA1, 5LOA in Table 6)
# Assay type: cell-based
# Conditions: 50% inhibition of 5-HETE formation, E -number means X 10^-no., read-out: IC50 (5LOA)
# Description: To Evaluate the Effect of Each Compounds as a 5-Lipoxygenase Inhibitor in Comparison to Standard Reference Agents in Human Leukocytes (5LOAl)
# The purpose of this assay is to evaluate the activity of each compound as an inhibitor of human leukocyte 5-lipoxygenase.
# Arachidonic acid and calcium ionophore A23187 are obtained from Sigma (St. Louis, MO). Silica gel plates, GF are obtained from Analtech (Newark, DE). Arachidonic acid, (1-^14 C) and 5-HETE (^3 H), 5-(S)-hydroxy-6-trans, 8,11,14-cis eicosatetraenoic acid, are obtained from New England Nuclear (Boston, MA). Six percent Dextran-70 in 0.9% NaCl is obtained from Cuffer Labs (Berkeley, CA).
# Preparation of Leukocytes
# Fresh blood from normal adult men who had not received any drugs for at least the previous five days is obtained by the Community Research Clinic (WL/PD) using venipuncture and collected into heparinized vacuotainer tubes. To every 100 ml of pooled blood is added 25 ml of dextran solution (6% dextran -70 in 0.9% sodium chloride containing 3% dextrose) and this is mixed gently in a plastic cylinder. The mixture is left to stand at room temperature for at least 90 minutes. The upper layer which is rich in leukocytes and platelets is then carefully decanted into 50 ml plastic tubes and centrifuged at about 100×g for eight minutes in and IEC centrifuge and rotor number 269 (about 600 rpm). The supernatant fluid is discarded and the pellet is resuspended in 10 ml of 0.87% ammonium chloride for exactly two minutes. This procedure is to lyse completely contaminating red blood cells. Leukocytes are then separated by centrifugation for ten minutes. The pellet is washed three times by suspension in 20 ml PBS (sodium chloride, 7.1 g; Na2 HPO4, 1.15 g; KH2 PO4,0.2 g, and KCl, 0.2 g/L) and centrifuged as before. The final pellet is suspended in PBS containing 0.87 mM CaCl2. Viability of the cells is then checked using trypan blue exclusion method and is found to be over 90%.
# 5-Lipoxygenase Enzyme Assay
# Leukocyte cells in suspension (0.98 ml) are incubated with or without test compounds for five minutes at 37° C. in a shaking water bath. At this time a […] mixture is perpared per 1 ml of cell suspension: 100 mM arachidonic acid, 1 μl, 0.05 μCi ^14 C-arachidonic acid in 5 μl; 1 mM calcium ionophore A23187, 10 μl (1). This mixture is added and the incubation continued for five minutes. The reaction is stopped by adding four volumes of absolute ethanol and the mixture is kept in ice for 30 minutes. The floculated precipitate is separated by centrifugation at about 37,000×g for 20 minutes (Beckman Instruments rotor number 40). The alcohol extract is taken to dryness under a stream of nitrogen and the residue is dissolved in 100-200 μl absolute ethanol. At the time any turbidity is removed by centrifugation. An aliquot (25-50 μl) is applied onto 20×20 cm silica gel TLC plate and developed using the following solvent system: diethyl ether, petroleum ether (2040°C.),acetic acid (50:50: 1 v/v). Zones of 1 cm apart are scraped from the TLC plate and transferred to mini-vials. Methanol (0.5 ml) is added to dissolve the radioactivity adsorbed to the silica gel and scintillation fluid (H. P., Beckman), 5 ml is then added and vials are counted in a liquid scintillation counter. A sample of ^3 H-5-HETE is applied and used for the identification of the formed 5-HETE. Total radioactivity in the test as well as the control samples are normalized and the amount of 5-HETE present is calculated accordingly.
# IC50 values are defined as the concentrations of test agents which caused a 50% inhibition of the formation of 5-HETE as compared to control and are determined by inspection of the concentration-response curves.
compound,measurement,value
"COc1ccc(CCc2ccc(NC(=O)c3ccc(C)cc3O)cc2)cc1OC [Example 46, N-[4-[2-(3,4-Dimethoxyphenyl)ethyl]phenyl]-2-hydroxy-4-methylbenzamide]",pIC50,6.30
